Values quoted from earlier work as cited in US20100291629A1, “USE OF DELEUCOCYTATION FILTERS FOR DEFENSIN PURIFICATION” (ETABLISSEMENT FRANCAIS DU SANG, priority 2006, published 2010).

Columns and labels:
neutrophils [1] = details: PMA 1 μg/ml
neutrophils [2] = system: neutrophils
isolated neutrophils = details: Ionomycin 1 μM; 30.10^6 isolated neutrophils

Q: Which defensins released (neutrophils [1]) does the source give for `CCCCCCCCCCCCCC(=O)O[C@@H]1[C@@H](C)[C@@]2(O)[C@@H](C=C(CO)C[C@]3(O)C(=O)C(C)=C[C@@H]23)[C@@H]2C(C)(C)[C@]12OC(C)=O` [PMA, phorbol myristate acetate] here?
A: 8%

Q: Which “defensin release, % of the content” value (neutrophils [2]; fMLP 10^−7 M) does the source give for `CSCC[C@H](NC=O)C(=O)N[C@@H](CC(C)C)C(=O)N[C@@H](Cc1ccccc1)C(=O)O` [fMLP, N-formylmethionyl-leucyl-phenylalanine] here?
A: 17%

Q: For `C[C@H](CCC(=O)O)C[C@H](C)C[C@H](C)C(=O)/C=C(\O)[C@H](C)C[C@H](C)C/C=C/[C@@H](C)[C@@H](O)[C@@H](C)[C@@H](O)C[C@@H]1CC[C@@](C)([C@H]2CC[C@@](C)([C@@H](C)O)O2)O1` [ionomycin, Ionomycin], which α-defensin exocytosis rate (isolated neutrophils) is on record?
A: approximately 20%

Q: With “IL8: Interleukine 8, used to treat neutrophils in vitro” as the compound, how does the “defensin release, % of the defensin content in neutrophil granules” value (neutrophils [2]; IL8 50 ng/ml, 2.10^6 neutrophils) read?
A: 10%
